Experimental data taken from US8435553B2, “Elastin stabilization of connective tissue” (Clemson University Research Foundation (CURF), priority 2005, dated 2013).
“And” between values parts separate entries of the source, which are not always exact repeats. Equal entries are not always repeated. Where two headings read alike, the source gives them in different places. Values belong to the compound of their own block, whether it stands above or below them.

Tests used:
[1] = system: Rat skin fibroblasts
Experimental: (§1) Fresh porcine aorta was treated with Glut, Glut/TA, or Glut/PGG, as described above. After thorough rinsing (3x, 1 hr. each, 100 mL ddH2O), samples were orbitally shaken at 120 rpm 37° C. for 14 days in a PBS/azide buffer, pH7.4, for extraction of soluble, cytotoxic compounds (50 mL per 6 tissues samples, each 4 mm×4 mm).
(§2) Rat skin fibroblasts were seeded onto 24-well plates (50,000 cells/well) in 1 mL DMEM supplemented with 10% FBS and 1% penicillin-streptomycin. Cells were maintained in a humidified incubator at 37° C. with 10% CO2. After 24 hours, the media was removed and replaced with one of the PBS/azide solutions diluted 10-fold in fresh media. As control, a sample was held in buffer alone (negative control) and also in a 70% ethanol solution (positive control). Effectively, 100 μL of the ‘test solution’ was added to 900 μL of media for each well (except in the case of ethanol, in which no media was added). The cells were incubated with these solutions for 2 hours and then rinsed with 1 mL PBS. Viability of the cells was then assessed using a qualitative LIVE/DEAD® staining fluorescent stain. In addition, a quantitative measurement, MTS, was used to measure the activity of cell enzymes. Specifically, the reagent was diluted 5-fold in media, then applied to the cells for 90 minutes. A portion of the resulting solutions ([…]) was transferred to a 96-well plate and read at an absorbance of 490 nm. Samples were blanked to a well containing media and MTS reagent with no cells.

[2] = system: Rat skin fibroblasts; remark: listed apart in the source
Experimental: as §1, §2
Micrographs of cells introduced to LIVE/DEAD® were taken 45 minutes after exposure. Results are shown in FIGS. 6A-6E, in which living cells appear as light spots on the dark background, and dead cells appear as darker gray spots.

[3] = system: elastase; assay: Elastase digestion of treated porcine aorta (mass loss, elastin histology); type: biochemical
Experimental: Fresh porcine aorta was cut into approximately 4 mm×4 mm squares and treated with 0.3% tannic acid (TA) (1.76 mM) in 50 mM HEPES […] buffered saline at pH 5.5 for 4 days at room temperature. A control sample was treated in mM Hepes buffered saline at pH5.5. Samples were then rinsed three times (1 hour each) in 100 mL ddH2O at room temperature and lyophilized to record dry weight. Samples (about 15-25 mg dry weight), both control and TA treated, were incubated with 1.0 mL pure elastase (20 units/ml, in 100 mM Tris, 1 mM CaCl2, 0.02% NaN3, pH 7.8 buffer) at 37° C. for 48 hours with orbital shaking at 650 rpm. Samples were then centrifuged (10000 rpm, 10 min. 4° C.) and supernatants retained to assess enzyme activity. Tissue samples were again rinsed three times (1 hour each) in 100 mL ddH2O at room temperature and lyophilized to record dry weight after elastase, and the percent of digested tissue was calculated. Elastin degradation was assessed by measuring mass loss (dry weight before and after elastase contact) and by preparation of histological slides stained with an elastin-specific stain (Voerhoff van Gieson stain).

[4] = system: pure aortic elastin; assay: Kinetics of binding of tannic acid to pure aortic elastin; parameters: species or system porcine
Experimental: Ascending porcine aorta was collected fresh at a slaughterhouse and transported to the laboratory on ice. After cleaning fat and adherent tissues, aorta was cut into 2×4 mm strips and thoroughly rinsed in cold saline. Aortic elastin was purified by a sequence of extractions. Specifically, aortic strips were suspended in 100 mM sodium hydroxide (60 strips in 100 mL) and incubated for 14 hours at 37° C. with collagenase (0.5 units/mg wet tissue) in 50 mM Tris buffer, 10 mM calcium chloride, pH 8.0. The collagenase preparation was pre-adsorbed with elastin fibers to remove residual elastolytic activities. The final digestion step completely removed residual collagen, leaving pure aortic elastin.
The pure aortic elastin strips were placed in 2 mL microfuge tubes and suspended in 1.5 mL of an 8 mg % TA solution prepared in a 50 mM disodium hydrogen phosphate, 0.9% sodium chloride buffer, pH 5.5. A second group consisted of pure aortic elastin suspended in a solution containing 8 mg % TA and 16 mg % Glut in the same buffer. As controls, TA solution and the mixture of TA and Glut were incubated without elastin samples. Samples were incubated at room temperature and at defined time intervals (0, 20, 40, 60, 120, 360 minutes and 24 hours), samples were retrieved and analyzed for TA content in solution. Specifically, samples were mixed with a tungstate/phosphomolybdate reagent followed by addition of a saturated sodium carbonate solution and ddH2O. After 10 minutes at room temperature, OD at 760 nm was measured in a microplate spectrophotometer. Standard curves were constructed with TA in the range of 0-8 mg % and with TA (0-8 mg %) in mixtures with Glut (16 mg % ). Glut interference with the TA color reaction was minimal (no statistical differences found for all data points). Finally, the elastin strops were rinsed in ddH2O and lyophilized. The amount of TA bound to pure aortic elastin was calculated from the differences between initial TA concentration in solution and concentration of TA in solution after incubation with elastin strops and were expresses as micrograms of TA bound by 1 mg dry elastin. All samples were assayed in triplicate.

[5] = system: rat abdominal aorta; assay: CaCl2 chemical injury aneurysm model on rat abdominal aorta; type: in vivo, Sprague-Dawley rats
Source text: In vivo use of the disclosed agents was examined. The aneurysm model used was based on the perivascular application of a high concentration calcium chloride (CaCl2) solution, a method originally used to induce aneurysms in rabbit carotid arteries (see, Gertz SD, Kurgan A, Eisenberg D. J Clin Invest 1988;81(3):649-656.) and has more recently been used on abdominal aorta of rodents. (See, e.g., Freestone T., et al., Arterioscler Thromb Vasc Biol 1995;15(8):1145-1151. Freestone T., et al., Arterioscler Thromb Vasc Biol 1997;17(1):10-17. Tambiah J., et al. Br J Surg 2001;88(7):935-940.) This model results in a localized mild insult to the arterial tissue. In most studies, a significant increase in aortic diameter (indicative of aneurysm formation) was observed after 3 to 6 weeks post-injury. For this example, the CaCl2-based chemical injury was performed on rat aorta.
(§3) Adult male Sprague-Dawley rats were placed under general anesthesia (2% to 3% isoflurane), allowing for a midline incision along the abdomen in order to expose the infrarenal abdominal aorta. Once exposed, the abdominal aorta was treated with 0.03% PGG solution in saline for 15 minutes using a strip (1.5 cm×0.5 cm) of presoaked 8-ply sterile cotton gauze. The area was then briefly rinsed with saline, allowing induction of chemical injury (0.5 M CaCl2, delivered with gauze for 15 minutes). As controls, rat aortas were treated with physiological saline for 15 minutes, rinsed, and then subjected to calcium chloride. After treating with CaCl2, the gauze was removed and the abdominal cavity was closed with subcutaneous suture, followed by surgical staples. The rats were anesthetized after 28 days, at which point the abdominal aorta was again exposed. Digital photographs (before PGG application at day 0, as well as after 28 days) were used to measure percent increases in diameter after the 28 day period for each rat. Aortic tissue was collected for analysis.
Following superficial examination of the aortic segments, the segments were analyzed via desmosine analysis for elastin content. […]

[6] = Long-term binding of tannins to aortic tissue (extraction from explanted aorta); type: in vivo, Sprague-Dawley rats
Experimental: as §3, with “analysis. Vessels were also analyzed to determine the long-term binding of the tannins with the tissue. Tannins were extracted from explanted aorta immediately after treatment (labeled PGG in situ on FIG. 11) and measured levels were compared to those obtained from aorta explanted 28 days following PGG treatment (labeled PGG in vivo on FIG. 11).” for “analysis.”

[7] = system: porcine aorta; assay: Tensile stress/strain test, elastic modulus of aorta; conditions: slope of stress-strain curve between 0 and 5% strain; n = 4
Experimental: To evaluate mechanical properties, aorta was cut to form dumbbell shapes approximately 40 mm in length, approximately 10 mm wide at each end, and approximately 5 mm wide at the center, with the long axis of the dumbbell shape being parallel to the circumferential direction of the aorta. Tensile properties of the samples were tested using standard stress/strain analysis on a Synergie 100 testing apparatus (MTS Systems Corporation, Eden Prairie, Minn.) operated at a constant uniaxial velocity of 0.2 mm/sec using a 10-Newton load cell to determine elastic modulus of the samples. Elastic modulus was calculated as the slope of the stress-strain curve between 0 and 5% strain.

[8] = system: porcine aorta; assay: Recoil of aortic rings by opening angle measurement; conditions: aortic rings cut radially, relaxed 15 minutes; n = 5
Experimental: Fresh porcine aorta was cut across the diameter into continuous rings approximately 1 cm in height as illustrated in FIG. 5A and treated with glutaraldehyde (Glut treatment). For this treatment, aortic ring samples were first fixed with 0.6% glutaraldehyde in 50 mM Hepes buffered saline, pH 7.4, overnight at room temperatures, followed by 0.2% glutaraldehyde in the same buffer for 7 days at room temperatures.
A portion of the Glut-treated rings were then treated with 0.3% pentagalloylglucose (PGG). PGG was first prepared from TA as outlined by Hagerman, et al. (Hagerman , Zhao Y., and Johanson J., “Methods for determination of condensed and hydrolyzable tannins,” Shahadi, F., Ed., Antinutrients and Phytochemicals in Foods, Wash., D.C., American Chemical Society, p. 209-222 (1997)). Specifically, TA was methanolyzed using a solution of methanol and acetate buffer. After methanolysis, the methanol was removed by rotary evaporation and replaced with ddH2O. A series of separate extractions involving diethyl ether and ethyl acetate, along with rinses of dilute methanol and ddH2O was performed to purify the PGG. The resulting precipitate was centrifuged and lyophilized to form a solid. […]
Samples were then tested for ability to recoil using opening angle measurements. […] Using these lines, the opening angles of the aortic rings were calculated. […]

SMILES: CCO [EtOH, ethanol]
Viability (MTS assay) ([1]; 14 day tissue extract diluted 10-fold, 2 hours exposure, absorbance at 490 nm, n = 3): 0.03
cell viability after exposure to extracts [2]: essentially no viable cells
Viability (live/dead assay) ([2]; 14 day tissue extract diluted 10-fold in media, 2 hours exposure): 0%

TA remaining in solution, of initial TA ([4]; after 6 hours incubation with elastin): 10%
TA remaining in solution, of initial TA ([4]; at 24 hours incubation with elastin): less than 3.5%
TA bound at leveling off ([4]; rapid binding within the first 6 hours, then plateau): about 3 mg of TA/mg dry elastin
decrease of amount of TA in solution ([4]; within 1 hour of incubation with elastin, 8 mg % TA, pH 5.5): about 50%
SMILES: O=C(OC[C@H]1O[C@@H](OC(=O)c2cc(O)c(O)c(OC(=O)c3cc(O)c(O)c(O)c3)c2)[C@H](OC(=O)c2cc(O)c(O)c(OC(=O)c3cc(O)c(O)c(O)c3)c2)[C@@H](OC(=O)c2cc(O)c(O)c(OC(=O)c3cc(O)c(O)c(O)c3)c2)[C@@H]1OC(=O)c1cc(O)c(O)c(OC(=O)c2cc(O)c(O)c(O)c2)c1)c1cc(O)c(O)c(OC(=O)c2cc(O)c(O)c(O)c2)c1 [TA, tannic acid]
elastin fibers in histology (Voerhoff van Gieson stain) after elastase ([3]; 0.3% TA pre-treated aorta after elastase): fully preserved
mass lost after elastase (percent of digested tissue) ([3]; 0.3% TA pre-treatment 4 days pH 5.5, elastase 20 units/ml, 37° C., 48 hours, n=6): 4-5% and 4.33%

SMILES: O=C(OC[C@H]1O[C@@H](OC(=O)c2cc(O)c(O)c(O)c2)[C@H](OC(=O)c2cc(O)c(O)c(O)c2)[C@@H](OC(=O)c2cc(O)c(O)c(O)c2)[C@@H]1OC(=O)c1cc(O)c(O)c(O)c1)c1cc(O)c(O)c(O)c1 [PGG, pentagalloylglucose]
percentage change in diameter of aortic segments ([5]; 0.03% PGG perivascular 15 minutes before CaCl2, 28 days): less than 10%
increase in diameter of aortic segments ([5]; 0.03% PGG perivascular 15 minutes before CaCl2, 28 days, n=12 per group): about 100 μm
desmosine content (elastin content) ([5]; aortic segments 28 days post-injury): about 1350 pmol desmosine/mg protein
cytotoxicity comparison [1]: less cytotoxic than TA
level of tannins extracted from tissue ([6]; explanted 28 days following PGG treatment (PGG in vivo)): about 1.3 μg PGG/mg dry tissue
level of tannins extracted from tissue ([6]; explanted immediately after treatment (PGG in situ)): about 1.8 μg PGG/mg dry tissue

SMILES: O=CCCCC=O [Glut, glutaraldehyde]
Mean Elastic Modulus [7]: 1.28 kPa
Viability (MTS assay) ([1]; rat, 2 h): 1.04
cell viability after exposure to extracts [2]: remained viable
Viability (live/dead assay) ([2]; rat, 2 h): 100%
Mean opening angle [8]: 35.9 degrees
